≈ marks a conversion by molar mass, not a printed value. Entries after “also recorded” stand apart in the source; their conditions may differ.
Legend:
[1] = test system: SKOV3 ovarian cancer cells; test: Formazan dye (MTT) in-vitro cell growth assay, SKOV3; type: cell-based
Method: Cells were plated at 0.5−5×10^3/well in 96-well plates. After adhesion, media ±drugs alone or in combination were added. Cell numbers were estimated after 3-5 days by using a colorimetric formazan dye assay (Biomedica, Vienna, Austria). […] Statistical analysis of data from drug combination treatment experiments was performed using one-factorial ANOVA followed by Scheffe-test.
Yellow MTT (3-(4,5-Dimethylthiazol-2-yl)-2,5-diphenyltetrazolium bromide, a tetrazole) is reduced to purple formazan in the mitochondria of living cells (see Mosmann, T., J. Immunol. Methods, 65(1-2): 55-63, 1983).

EGFR mRNA = EGFR mRNA by RT-PCR and qRT-PCR in A2780 cells; type: cell-based, human
Method: RNA was extracted from the cells using TRI-REAGENT™ (Molecular Research Center, Cincinnati, Ohio) and subjected to reverse transcription—polymerase chain reaction (“RT-PCR”) using the TITAN ONE TUBE RT-PCR KIT™ system (Hoffmann-La Roche). […] Conditions for ErbB2 and GAPDH were: 50° C., 30 minutes; 94° C., 2 minutes; 10 cycles (94° C., 30 seconds; 51° C., 30 seconds; 68° C., 45 seconds); 25 cycles (94° C., 30 seconds; 51° C., 30 seconds; 68° C., 45 seconds +5 seconds autoextension) and 68° C., 7 minutes. […] Fragments were electrophoresed and stained with ethidium bromide.
(§1) Quantitative RT-PCR (“qRT-PCR”) was performed in the ABI PRISM 7000™ Sequence Detector (Applied Biosystems, Foster City, Calif.) using human EGFR, ErbB2, and FASN TaqMan® Gene Expression Assay systems (Applied Biosystems; Assay IDs: Hs00193306_m1, Hs00170433_m1, Hs00188012_m1) according to the manufacturer's instructions. β-actin and GAPDH (VIC™ and FAM labeled pre-developed TaqMan® Assay reagents, Applied Biosystems) were used as endogenous controls. EGFR, ErbB2, and FASN mRNA expression were calculated as described previously (Grunt, ibid).

ErbB2 protein = test: Total and phosphorylated ErbB2 protein by Western blot in A2780 cells; type: cell-based
Method: Cells plated in culture media containing 5% fetal calf serum at a density of 2.6×10^5 (SKOV3) or 6×10^5 (A2780) in 60 mm dishes (Corning, Corning, N.Y.) were treated with FASN inhibitor C75, with small-molecule ErbB RTK inhibitors (RTKIs), with the MEK1/2 antagonist U0126 or with the PI3K inhibitor LY294002 for the indicated times and at various concentrations. In some experiments cells were stimulated for 5 or 10 min with 100 ng/ml EGF (Sigma) before lysis in RIPA buffer (Grunt et al., Biochem Biophys Res Commun 329:1253-1259, 2005). Proteins (20 μg/lane) were subjected to SDS-PAGE, blotted onto PVDF membranes and immunostained (see Grunt, ibid) using the following antibodies: 2 μg/ml goat anti-pEGFR(Tyr1173) (sc-12351), 1 μg/ml rabbit anti-ErbB2 (C-18) (sc-284), 1 μg/ml rabbit anti-pErbB2(Tyr1248) (sc-12352-R) (all from Santa Cruz Biotechnology Inc., Santa Cruz, Calif.), rabbit anti-EGFR 1:1,000 (2232), rabbit anti-AKT 1:1,000 (9272), rabbit anti-pAKT(Ser473) 1:1,000 (9271), rabbit anti-pAKT(Thr308) 1:1,000 (9275), rabbit anti-pERK1/2(Thr202/Tyr204) 1:1,000 (9101) (all from Cell Signaling Technology), rabbit anti-ERK1/2 1:3,000 (06-182, Upstate Biotechnology Inc., Lake Placid, N.Y.), 0.5 μg/ml mouse monoclonal anti-FASN (610963, BD Biosciences, San Jose, Calif.), or 0.67 μg/ml goat anti-human actin (1-19, sc-1616, Santa Cruz Biotechnology). Secondary antibodies were peroxidase-tagged donkey-anti-rabbit IgG (V795A, Promega, Madison, Wis.) or donkey-anti-goat IgG (sc-2020, Santa Cruz Biotechnology) at 1:15,000, respectively, or chicken anti-mouse IgG (sc-2954, Santa Cruz Biotechnology) at 1:10,000. Detection was performed by enhanced chemiluminescence.

ErbB2 mRNA = ErbB2 mRNA by qRT-PCR in SKBR3 breast cancer cells; type: cell-based, human
From the text: RNA was extracted from the cells using TRI-REAGENT™ (Molecular Research Center, Cincinnati, Ohio) and subjected to reverse transcription—polymerase chain reaction (“RT-PCR”) using the TITAN ONE TUBE RT-PCR KIT™ system (Hoffmann-La Roche). Primers were: EGFR: 5′-[…]-3′ (SEQ ID NO:1) (forward, E1S) 5′-[…]-3′ (SEQ ID NO:2) (reverse, E1A); ErbB-2: 5′-[…]-3′ (SEQ ID NO:3) (forward, E2S2), 5′-[…]-3′ (SEQ ID NO:4) (reverse, E2A2); GAPDH: 5′-[…]-3′ (SEQ ID NO:5) (forward, GAPDH3S), 5′-[…]-3′ (SEQ ID NO:6) (reverse, GAPDH3A). Conditions for reverse transcription and amplification of the EGFR coding sequence were: 50° C., 30 minutes; 94° C., 2 minutes; 10 cycles (94° C., 30 seconds; 64.9° C., 30 seconds; 68° C., 90 seconds); 30 cycles (94° C., 30 seconds; 64.9° C., 30 seconds; 68° C., 90 seconds +5 seconds autoextension) and 68° C., 7 minutes. […]
as §1

IC50 (EGFR mRNA; Homo sapiens, 72 h, after 3 days, read-out: IC50, down-regulation of EGFR mRNA): 6.5 µg/mL (≈ 25.6 µM)
Compound: C=C1C(=O)OC(CCCCCCCC)C1C(=O)O (centres unmarked) [C75, tetrahydro-3-methylene-2-oxo-5-n-octyl-4-furancarboxylic acid]
inhibition at 10 µg/mL ([1]; Homo sapiens, SK-OV-3, 10 μg/ml C75 on its own): 50 to 55%
in vitro growth inhibition (in words) ([1]; MTT assay, single drug): growth inhibitory activity
EGFR mRNA, effect in words (EGFR mRNA): slowly and concordantly reduces
IT50, EGFR mRNA (EGFR mRNA; at 7 μg/ml): about 29 hours
phosphorylated ErbB2 (pErbB2), effect in words (ErbB2 protein): downregulates; also recorded: deprivation
total ErbB2 protein, effect in words (ErbB2 protein): downregulates; also recorded: deprivation
ErbB2 mRNA, effect in words (ErbB2 mRNA): dose-dependent decline; also recorded: dose-dependent down-regulation

Source: US20090325877A1, “Combination Product of Receptor Tyrosine Kinase Inhibitor and Fatty Acid Synthase Inhibitor for Treating Cancer” (Wyeth, priority 2008, published 2009)
